Data reported in patent US6150332A, “Method and composition for lowering low density lipoprotein cholesterol” (Virginia Commonwealth University, priority 1998, dated 2000).

Experiments:
[1] = test system: human HepG2 cells; assay: Iodine labeled LDL binding in HepG2 cells in culture; format: cell-based; conditions: 2 μM or 5 μM tested, added 24-48 hr after incubation began, FIG. 1a
Procedure: (§1) With reference to FIGS. 1a-b, an experiment was conducted wherein iodine labeled LDL was incubated with HepG2 or rat hepatocytes in culture with and without cleaved α1 -antitrypsin or hypocholesterolemic peptides. The cleaved α1 -antitrypsin and hypocholesterolemic peptides were added 24-48 hr after incubation began in 2 micromolar (μM) or 5 μM concentrations. The bound LDL was quantitated by counting. The control indicates the amount of bound LDL obtained when no cleaved α1 -antitrypsin or hypocholesterolemic peptides are present. FIGS. 1a-b show maximum LDL binding occurs when 2 μM α1 -antitrypsin or its peptide derivatives are added.
An acetyl derivative of SEQ ID No. 16 was tested experimentally in human Hep G2 cells for LDL binding in the same manner as described above in connection with FIGS. 1a-b. […] ID No. 16. The sub-fragment was added 24-48 hours after incubation began in concentrations ranging from 0.13-1.4 μM.

[2] = test system: rat hepatocytes; assay: Iodine labeled LDL binding in rat hepatocytes in culture; format: cell-based; conditions: 2 μM or 5 μM tested, added 24-48 hr after incubation began, FIG. 1b
Procedure: as §1

concentration at which maximum LDL binding occurs [2]: 2 µM
Substance: α1 -antitrypsin
concentration at which maximum LDL binding occurs [1]: 2 µM
